In US7739055B2, “Methods and systems for generating and evaluating peptides” (priority 2005, dated 2010):
In brackets after ≈: the same amount, converted by molar mass. Where two headings read alike, the source gives them in different places. Where a SMILES comes first, the peptide text is derived from it.

Tests used:
[1] = test system: B. cereus
[2] = test system: Sterne strain of Bacillus anthracis
[3] = test system: Smith Diffuse strain of Staphylococcus aureus
[4] = test system: Escherichia coli
[5] = first concentration that prohibits growth by OD at 24 hours, Table 1

Compound | MIC B. cereus [1, 5] | MIC E. coli [4, 5] | other results
CC[C@H](C)[C@H](NC(=O)[C@H](CCCCN)NC(=O)[C@H](CCCCN)NC(=O)[C@H](Cc1ccccc1)NC(=O)[C@H](CC(C)C)NC(=O)[C@H](CCCCN)NC(=O)[C@H](Cc1c[nH]c2ccccc12)NC(=O)[C@@H](N)CCCCN)C(=O)NCC(=O)N[C@@H](C)C(=O)N[C@H](C(=O)N[C@@H](CC(C)C)C(=O)N[C@@H](CCCCN)C(=O)N[C@H](C(=O)N[C@@H](CC(C)C)C(N)=O)C(C)C)C(C)C [Cec Mel Hyb, KWKLFKKIGAVLKVL-NH2] (H-KWKLFKKIGAVLKVL-NH2) | – | – | MIC B. cereus ([1]; 24 h): 8 µg/mL (≈ 4.52 µM); MIC B. anthracis [2]: 16 µg/mL (≈ 9.04 µM); MIC S. aureus ([3]; Smith Diffuse strain of): 4 µg/mL (≈ 2.26 µM)
CC(C)C[C@H](NC(=O)CNC(=O)[C@H](Cc1ccccc1)NC(=O)[C@H](CC(C)C)NC(=O)[C@@H](N)Cc1ccccc1)C(=O)N[C@@H](C)C(=O)N[C@@H](CO)C(=O)N[C@@H](CCCCN)C(=O)N[C@H](C(=O)N[C@@H](Cc1ccccc1)C(=O)N1CCC[C@H]1C(=O)N[C@@H](C)C(=O)N[C@H](C(=O)N[C@@H](Cc1ccc(O)cc1)C(=O)N[C@@H](CS)C(=O)N[C@@H](CCCCN)C(=O)N[C@H](C(=O)N[C@H](C(=O)N[C@@H](CCCNC(=N)N)C(=O)N[C@@H](CCCCN)C(=O)O)[C@@H](C)O)C(C)C)C(C)C)C(C)C [Peptide 5] (H-FLFGLASKVFPAVYCKVTRK-OH; N-terminus and C-terminus assumed) | – | – | MIC B. cereus ([1]; 24 h): 256 µg/mL (≈ 113 µM); MIC B. anthracis [2]: 128 µg/mL (≈ 56.3 µM); MIC S. aureus ([3]; Smith Diffuse strain of): 256 µg/mL (≈ 113 µM); MIC E. coli ([4]; 24 h): 64 µg/mL (≈ 28.1 µM)
CC[C@H](C)[C@H](NC(=O)[C@@H](NC(=O)[C@H](C)NC(=O)[C@@H]1CCCN1C(=O)[C@H](Cc1ccccc1)NC(=O)[C@@H](NC(=O)[C@H](CCCCN)NC(=O)[C@H](CO)NC(=O)[C@H](C)NC(=O)[C@@H](NC(=O)[C@H](CCCNC(=N)N)NC(=O)[C@H](Cc1ccccc1)NC(=O)[C@H](CC(C)C)NC(=O)[C@H](C)NC(=O)CNC(=O)[C@@H](N)CC(C)C)C(C)C)C(C)C)C(C)C)C(=O)N[C@@H](CO)C(=O)N[C@@H](CCSC)C(=O)N[C@H](C(=O)N[C@@H](CCCCN)C(=O)O)C(C)C [Peptide 22] (H-LGALFRVASKVFPAVISMVK-OH; N-terminus and C-terminus assumed) | – | – | MIC B. cereus ([1]; 24 h): 64 µg/mL (≈ 30 µM); MIC B. anthracis [2]: 64 µg/mL (≈ 30 µM); MIC S. aureus ([3]; Smith Diffuse strain of): 64 µg/mL (≈ 30 µM); MIC E. coli ([4]; 24 h): 256 µg/mL (≈ 120 µM)
CC[C@H](C)[C@H](NC(=O)[C@H](CC(C)C)NC(=O)[C@H](C)NC(=O)[C@@H]1CCCN1C(=O)[C@H](Cc1ccccc1)NC(=O)[C@@H](NC(=O)[C@H](CCCCN)NC(=O)[C@H](CO)NC(=O)[C@H](C)NC(=O)[C@@H](NC(=O)[C@H](CCCNC(=N)N)NC(=O)[C@H](Cc1ccccc1)NC(=O)[C@@H](NC(=O)[C@@H](NC(=O)[C@@H]1CCCN1C(=O)[C@@H](N)CC(C)C)C(C)C)C(C)C)C(C)C)C(C)C)C(=O)N[C@@H](CO)C(=O)N[C@@H](CCCCN)C(=O)N[C@@H](CC(C)C)C(=O)N[C@H](C(=O)O)[C@@H](C)O [Peptide 35] (H-LPVVFRVASKVFPALISKLT-OH; N-terminus and C-terminus assumed) | – | – | MIC B. cereus ([1]; 24 h): 256 µg/mL (≈ 117 µM); MIC B. anthracis [2]: 128 µg/mL (≈ 58.6 µM); MIC S. aureus ([3]; Smith Diffuse strain of): 256 µg/mL (≈ 117 µM); MIC E. coli [4]: + (key: +: MIC greater than 256 ug/mL; ++: MIC greater than 128 ug/mL, not sufficiently soluble to test as 256 ug/mL)
CC(C)C[C@H](NC(=O)[C@H](C)NC(=O)[C@H](CO)NC(=O)[C@H](Cc1ccccc1)NC(=O)[C@@H](NC(=O)[C@H](CO)NC(=O)[C@@H]1CCCN1C(=O)[C@@H](NC(=O)[C@@H](NC(=O)[C@H](CCCCN)NC(=O)[C@H](CO)NC(=O)[C@H](C)NC(=O)[C@H](CC(C)C)NC(=O)[C@H](CCCCN)NC(=O)[C@H](Cc1ccccc1)NC(=O)[C@@H](NC(=O)[C@H](Cc1ccccc1)NC(=O)[C@@H](N)CO)C(C)C)C(C)C)C(C)C)C(C)C)C(=O)N[C@H](C(=O)N[C@@H](CCCNC(=N)N)C(=O)O)[C@@H](C)O [Peptide 43] (H-SFVFKLASKVVPSVFSALTR-OH; N-terminus and C-terminus assumed) | – | – | MIC B. cereus ([1]; 24 h): 256 µg/mL; MIC B. anthracis [2]: 128 µg/mL; MIC S. aureus ([3]; Smith Diffuse strain of): 256 µg/mL; MIC E. coli ([4]; 24 h): 256 µg/mL
CC(C)C[C@H](NC(=O)[C@H](CCCCN)NC(=O)[C@H](Cc1ccccc1)NC(=O)[C@H](CC(C)C)NC(=O)[C@@H](NC(=O)[C@@H]1CCCN1C(=O)[C@@H](N)CC(C)C)C(C)C)C(=O)N[C@@H](C)C(=O)N[C@@H](CO)C(=O)N[C@@H](CCCCN)C(=O)N[C@H](C(=O)N[C@@H](Cc1ccccc1)C(=O)N1CCC[C@H]1C(=O)N[C@@H](C)C(=O)N[C@H](C(=O)N[C@@H](Cc1ccccc1)C(=O)N[C@@H](CO)C(=O)N[C@@H](CO)C(=O)N[C@@H](CC(C)C)C(=O)N[C@@H](CCCCN)C(=O)O)C(C)C)C(C)C [Peptide 63] (H-LPVLFKLASKVFPAVFSSLK-OH; N-terminus and C-terminus assumed) | – | – | MIC B. cereus ([1]; 24 h): 64 µg/mL (≈ 29.2 µM); MIC B. anthracis [2]: 128 µg/mL (≈ 58.4 µM); MIC S. aureus ([3]; Smith Diffuse strain of): 128 µg/mL (≈ 58.4 µM); MIC E. coli ([4]; 24 h): 256 µg/mL (≈ 117 µM)
CC[C@H](C)[C@H](NC(=O)[C@H](CC(C)C)NC(=O)[C@H](C)NC(=O)[C@@H]1CCCN1C(=O)[C@H](C)NC(=O)[C@@H](NC(=O)[C@H](CCCCN)NC(=O)[C@@H](N)CCCNC(=N)N)C(C)C)C(=O)N[C@@H](CCCCN)C(=O)N[C@@H](CO)C(=O)N[C@@H](Cc1ccccc1)C(=O)N[C@H](C(=O)N[C@@H](Cc1ccccc1)C(=O)N[C@@H](CC(C)C)C(=O)N[C@@H](Cc1ccccc1)C(=O)N[C@@H](CCCCN)C(=O)N[C@@H](Cc1ccccc1)C(=O)N[C@@H](CCCCN)C(=O)N[C@@H](CCCCN)C(=O)NCC(=O)O)C(C)C [Shuffled 51] (H-RKVAPALIKSFVFLFKFKKG-OH; N-terminus and C-terminus assumed) | – | – | MIC B. anthracis [2]: 256 µg/mL (≈ 110 µM); MIC S. aureus ([3]; Smith Diffuse strain of): 128 µg/mL (≈ 55.1 µM); MIC E. coli [4]: + (key: +: MIC greater than 256 ug/mL; ++: MIC greater than 128 ug/mL, not sufficiently soluble to test as 256 ug/mL)
CC(C)C[C@H](NC(=O)[C@H](CC(C)C)NC(=O)[C@H](CO)NC(=O)[C@H](CCCCN)NC(=O)[C@H](CC(C)C)NC(=O)[C@@H]1CCCN1C(=O)[C@H](C)NC(=O)[C@H](Cc1ccccc1)NC(=O)[C@@H]1CCCN1C(=O)[C@H](CC(C)C)NC(=O)[C@@H](NC(=O)[C@H](CCCCN)NC(=O)[C@H](CCCCN)NC(=O)[C@@H](NC(=O)[C@H](CO)NC(=O)[C@@H](N)C(C)C)C(C)C)C(C)C)C(=O)N[C@@H](CO)C(=O)N[C@@H](Cc1ccccc1)C(=O)N[C@@H](C)C(=O)N[C@@H](Cc1ccccc1)C(=O)O [Shuffled 63] (H-VSVKKVLPFAPLKSLLSFAF-OH; N-terminus and C-terminus assumed) | – | – | MIC B. cereus ([1]; 24 h): 256 µg/mL (≈ 117 µM); MIC S. aureus ([3]; Smith Diffuse strain, Table 1): + (MIC greater than 256 ug/mL); MIC E. coli ([4]; 24 h): 256 µg/mL (≈ 117 µM)
SSSIPIKMVLVRALVFVKSG [Shuffled 55] | + (MIC greater than 256 ug/mL) | + (MIC greater than 256 ug/mL) | –
STVKVASKLAVVVSPISKGS [Shuffled 36] | + (MIC greater than 256 ug/mL) | + (MIC greater than 256 ug/mL) | –
SVIGKIASKVVPSVYCAISK [Peptide 44] | + (MIC greater than 256 ug/mL) | + (MIC greater than 256 ug/mL) | –
SVKPVGSSVVKGTALVKFFG [Shuffled 34] | + (MIC greater than 256 ug/mL) | + (MIC greater than 256 ug/mL) | –
SVKVAKSVIPSAVFAGGKVF [Shuffled 84] | + (MIC greater than 256 ug/mL) | + (MIC greater than 256 ug/mL) | –
SVVFGVASKVVPSVIGKVKT [Peptide 69] | + (MIC greater than 256 ug/mL) | + (MIC greater than 256 ug/mL) | –
TAKVVVFVSFSYVVPKKRAC [Shuffled 2] | + (MIC greater than 256 ug/mL) | + (MIC greater than 256 ug/mL) | –
TLVGVVAKLVATKIGSSPRA [Shuffled 56] | + (MIC greater than 256 ug/mL) | + (MIC greater than 256 ug/mL) | –
VDKGSYLPRPTPPRPIYNRN [Pyrrhocoricin] | – | ++ (MIC greater than 128 ug/mL, not sufficiently soluble to test as 256 ug/mL) | MIC B. cereus [1]: ++ (key: +: MIC greater than 256 ug/mL; ++: MIC greater than 128 ug/mL, not sufficiently soluble to test as 256 ug/mL)
VFSVKGGKPSVVIKVVVAST [Shuffled 69] | + (MIC greater than 256 ug/mL) | + (MIC greater than 256 ug/mL) | –
VIAFAKTKEAKAKLKGQAKG [Shuffled 77] | + (MIC greater than 256 ug/mL) | + (MIC greater than 256 ug/mL) | –
VKDLAKFIAKTVAKQGGCYL [Peptide 33] | ++ (MIC greater than 128 ug/mL, not sufficiently soluble to test as 256 ug/mL) | ++ (MIC greater than 128 ug/mL, not sufficiently soluble to test as 256 ug/mL) | –
VKRAGKGVAVVPSPLFKIVV [Shuffled 45] | + (MIC greater than 256 ug/mL) | + (MIC greater than 256 ug/mL) | –
VKTKCSVPAVVYILVKTFKS [Shuffled 88] | + (MIC greater than 256 ug/mL) | + (MIC greater than 256 ug/mL) | –
VVAKKFFVLVKGLAPVLSPS [Shuffled 42] | + (MIC greater than 256 ug/mL) | + (MIC greater than 256 ug/mL) | –
VVGRVASKVVPSLIGLFTTK [Peptide 65] | + (MIC greater than 256 ug/mL) | + (MIC greater than 256 ug/mL) | –
